Measurements taken from the NIST ThermoML archive (doi:10.1021/acs.jced.7b00584).
± gives the expanded uncertainty stated by the source.

Key:
[1] = Boiling temperature at pressure P; details: 101.3 kPa; Liquid; Ebulliometric method (Recirculating still)
[2] = Liquid, Ebulliometric method (Recirculating still)

| vapor or sublimation pressure ([2]; 318.85 K) [kPa] | vapor or sublimation pressure ([2]; 328.15 K) [kPa] | SMILES | Boiling temperature at pressure P [1] [°C] | vapor or sublimation pressure ([2]; 479.1 K) [kPa] | vapor or sublimation pressure ([2]; 489.25 K) [kPa] | vapor or sublimation pressure ([2]; 450.25 K) [kPa] | vapor or sublimation pressure ([2]; 462.65 K) [kPa] |
| --- | --- | --- | --- | --- | --- | --- | --- |
|  |  | OCCCCO [1,4-butanediol] | 228.00 ± 0.11 | 50 ± 1 | 70 ± 1 |  |  |
|  |  | O=C1CCCO1 [γ-butyrolactone] | 204.00 ± 0.11 |  |  | 50 ± 1 | 70 ± 1 |
| 50 ± 1 | 70 ± 1 | C1CCOC1 [tetrahydrofuran] | 65.97 ± 0.11 |  |  |  |  |
